Assays:
[1] = target: T1, PDPK1 (Homo sapiens, UniProt O15530); test: KINOMEscan panel screen; assay type: binding; conditions: read-out: Percent Control(%)
T1 construct: purchased DiscoveRx KINOMEscan (Ambit Biosciences)

[2] = target: T2, PIK3CD (Homo sapiens, UniProt O00329); test: KINOMEscan panel screen; assay type: binding; conditions: read-out: Percent Control(%)
T2 construct: purchased DiscoveRx KINOMEscan (Ambit Biosciences)

[3] = target: T3, CAMK4 (Homo sapiens, UniProt Q16566); test: KINOMEscan panel screen; assay type: binding; conditions: read-out: Percent Control(%)
T3 construct: purchased DiscoveRx KINOMEscan (Ambit Biosciences)
T3 sequence (Q16566 1-473): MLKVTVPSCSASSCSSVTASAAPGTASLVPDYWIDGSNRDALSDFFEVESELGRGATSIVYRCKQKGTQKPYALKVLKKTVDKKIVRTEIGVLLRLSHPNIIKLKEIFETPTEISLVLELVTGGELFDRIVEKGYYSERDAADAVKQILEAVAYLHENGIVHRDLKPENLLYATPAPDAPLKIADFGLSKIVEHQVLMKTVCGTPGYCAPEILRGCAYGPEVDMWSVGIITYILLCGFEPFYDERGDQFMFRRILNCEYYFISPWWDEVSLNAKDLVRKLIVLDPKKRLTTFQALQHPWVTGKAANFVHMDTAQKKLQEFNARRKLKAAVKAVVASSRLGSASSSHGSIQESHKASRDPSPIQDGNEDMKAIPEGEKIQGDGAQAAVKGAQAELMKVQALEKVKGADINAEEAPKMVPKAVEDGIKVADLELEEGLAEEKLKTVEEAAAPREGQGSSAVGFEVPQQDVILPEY

[4] = target: T4, ALK(L1196M) (Homo sapiens, UniProt Q9UM73, L1196M); test: KINOMEscan panel screen; assay type: binding; conditions: read-out: Percent Control(%)
T4 construct: purchased DiscoveRx KINOMEscan (Ambit Biosciences)
T4 sequence (Q9UM73 19-1620 L1196M): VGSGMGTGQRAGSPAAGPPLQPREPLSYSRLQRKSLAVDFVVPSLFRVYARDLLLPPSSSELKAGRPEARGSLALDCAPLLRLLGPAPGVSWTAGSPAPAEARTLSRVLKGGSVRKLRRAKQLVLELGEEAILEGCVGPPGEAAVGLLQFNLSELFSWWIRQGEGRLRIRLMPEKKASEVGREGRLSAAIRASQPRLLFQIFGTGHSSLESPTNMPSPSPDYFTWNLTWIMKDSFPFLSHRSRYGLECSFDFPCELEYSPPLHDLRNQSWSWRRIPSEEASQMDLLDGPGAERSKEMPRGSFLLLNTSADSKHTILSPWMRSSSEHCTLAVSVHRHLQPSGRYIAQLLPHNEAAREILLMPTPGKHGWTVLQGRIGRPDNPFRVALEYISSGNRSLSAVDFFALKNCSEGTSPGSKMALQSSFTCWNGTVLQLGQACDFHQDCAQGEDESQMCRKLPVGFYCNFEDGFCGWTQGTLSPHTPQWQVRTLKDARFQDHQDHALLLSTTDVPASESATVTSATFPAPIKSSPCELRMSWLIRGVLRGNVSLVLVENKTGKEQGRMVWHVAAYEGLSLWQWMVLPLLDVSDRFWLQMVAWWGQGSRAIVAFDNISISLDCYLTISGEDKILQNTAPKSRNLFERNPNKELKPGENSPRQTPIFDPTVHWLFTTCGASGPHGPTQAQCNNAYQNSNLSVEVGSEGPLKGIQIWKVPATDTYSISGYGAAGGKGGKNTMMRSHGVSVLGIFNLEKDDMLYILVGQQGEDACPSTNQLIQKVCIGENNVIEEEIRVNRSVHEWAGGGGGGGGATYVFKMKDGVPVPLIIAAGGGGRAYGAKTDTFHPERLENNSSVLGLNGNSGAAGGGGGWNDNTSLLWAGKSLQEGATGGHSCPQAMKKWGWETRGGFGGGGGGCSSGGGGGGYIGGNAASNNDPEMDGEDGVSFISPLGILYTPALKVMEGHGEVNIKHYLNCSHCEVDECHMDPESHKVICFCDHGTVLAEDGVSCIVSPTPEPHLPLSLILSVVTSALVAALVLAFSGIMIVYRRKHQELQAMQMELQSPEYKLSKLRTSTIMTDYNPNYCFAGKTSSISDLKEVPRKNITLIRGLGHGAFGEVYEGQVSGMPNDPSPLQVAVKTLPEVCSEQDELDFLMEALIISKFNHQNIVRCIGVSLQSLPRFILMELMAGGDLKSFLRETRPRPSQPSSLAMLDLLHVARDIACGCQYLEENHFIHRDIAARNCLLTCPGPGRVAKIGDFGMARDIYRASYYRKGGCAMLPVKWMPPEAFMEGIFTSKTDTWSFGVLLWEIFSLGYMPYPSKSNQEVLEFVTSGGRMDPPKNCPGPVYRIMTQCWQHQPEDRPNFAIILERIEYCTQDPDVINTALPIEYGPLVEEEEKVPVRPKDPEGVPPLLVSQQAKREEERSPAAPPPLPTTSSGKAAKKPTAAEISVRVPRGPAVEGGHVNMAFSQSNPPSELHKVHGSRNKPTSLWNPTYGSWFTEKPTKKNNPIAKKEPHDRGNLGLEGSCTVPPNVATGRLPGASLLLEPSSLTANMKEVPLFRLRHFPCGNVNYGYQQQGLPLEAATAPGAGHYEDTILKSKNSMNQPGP

[5] = target: T5, FER (Homo sapiens, UniProt P16591); test: KINOMEscan panel screen; assay type: binding; conditions: read-out: Percent Control(%)
T5 construct: purchased DiscoveRx KINOMEscan (Ambit Biosciences)

[6] = target: T6, SGK2 (Homo sapiens, UniProt Q9HBY8); test: KINOMEscan panel screen; assay type: binding; conditions: read-out: Percent Control(%)
T6 construct: purchased DiscoveRx KINOMEscan (Ambit Biosciences)

[7] = target: T7, p38-delta (Homo sapiens, UniProt O15264); test: KINOMEscan panel screen; assay type: binding; conditions: read-out: Percent Control(%)
T7 construct: purchased DiscoveRx KINOMEscan (Ambit Biosciences)
T7 sequence (O15264 whole entry): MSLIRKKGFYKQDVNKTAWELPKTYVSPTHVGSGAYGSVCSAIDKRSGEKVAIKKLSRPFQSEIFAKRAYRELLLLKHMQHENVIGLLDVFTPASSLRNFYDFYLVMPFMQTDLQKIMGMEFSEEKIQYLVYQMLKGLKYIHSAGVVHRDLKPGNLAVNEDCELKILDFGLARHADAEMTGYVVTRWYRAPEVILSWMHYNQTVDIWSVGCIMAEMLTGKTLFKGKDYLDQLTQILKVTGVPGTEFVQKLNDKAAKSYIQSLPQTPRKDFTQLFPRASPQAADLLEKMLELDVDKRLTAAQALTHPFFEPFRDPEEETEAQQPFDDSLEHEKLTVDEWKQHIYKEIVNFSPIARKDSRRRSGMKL

[8] = target: T8, JNK2 (Homo sapiens, UniProt P45984); test: KINOMEscan panel screen; assay type: binding; conditions: read-out: Percent Control(%)
T8 construct: purchased DiscoveRx KINOMEscan (Ambit Biosciences)
T8 sequence (P45984 whole entry): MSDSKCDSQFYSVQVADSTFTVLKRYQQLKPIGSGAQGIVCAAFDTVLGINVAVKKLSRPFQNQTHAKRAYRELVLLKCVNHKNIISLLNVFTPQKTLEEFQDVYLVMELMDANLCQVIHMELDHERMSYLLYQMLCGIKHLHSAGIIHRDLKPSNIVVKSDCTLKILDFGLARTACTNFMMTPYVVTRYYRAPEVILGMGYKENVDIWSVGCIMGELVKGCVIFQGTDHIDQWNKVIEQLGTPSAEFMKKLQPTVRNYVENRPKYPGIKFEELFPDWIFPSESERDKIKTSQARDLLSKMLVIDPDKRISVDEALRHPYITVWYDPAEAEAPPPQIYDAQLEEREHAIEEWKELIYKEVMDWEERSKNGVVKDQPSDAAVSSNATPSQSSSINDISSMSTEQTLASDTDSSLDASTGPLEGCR

[9] = target: T9, FYN (Homo sapiens, UniProt P06241); test: KINOMEscan panel screen; assay type: binding; conditions: read-out: Percent Control(%)
T9 construct: purchased DiscoveRx KINOMEscan (Ambit Biosciences)

[10] = target: T10, TRPM6 (Homo sapiens, UniProt Q9BX84); test: KINOMEscan panel screen; assay type: binding; conditions: read-out: Percent Control(%)
T10 construct: purchased DiscoveRx KINOMEscan (Ambit Biosciences)

[11] = target: T11, CSNK1A1L (Homo sapiens, UniProt Q8N752); test: KINOMEscan panel screen; assay type: binding; conditions: read-out: Percent Control(%)
T11 construct: purchased DiscoveRx KINOMEscan (Ambit Biosciences)
T11 sequence (Q8N752 whole entry): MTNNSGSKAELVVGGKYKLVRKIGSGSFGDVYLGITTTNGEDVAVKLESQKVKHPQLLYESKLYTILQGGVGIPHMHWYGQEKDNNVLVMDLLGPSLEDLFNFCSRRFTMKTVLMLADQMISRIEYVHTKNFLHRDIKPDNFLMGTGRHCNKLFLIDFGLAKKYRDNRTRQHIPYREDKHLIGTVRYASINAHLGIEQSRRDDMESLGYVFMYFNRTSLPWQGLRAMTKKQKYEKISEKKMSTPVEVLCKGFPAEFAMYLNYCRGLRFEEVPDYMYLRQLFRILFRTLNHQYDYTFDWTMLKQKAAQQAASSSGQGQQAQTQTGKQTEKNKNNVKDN

[12] = target: T12, MELK (Homo sapiens, UniProt Q14680); test: KINOMEscan panel screen; assay type: binding; conditions: read-out: Percent Control(%)
T12 construct: purchased DiscoveRx KINOMEscan (Ambit Biosciences)

[13] = target: T13, MET (Homo sapiens, UniProt P08581); test: KINOMEscan panel screen; assay type: binding; conditions: read-out: Percent Control(%)
T13 construct: purchased DiscoveRx KINOMEscan (Ambit Biosciences)

[14] = target: T14, MEK6 (Homo sapiens, UniProt P52564); test: KINOMEscan panel screen; assay type: binding; conditions: read-out: Percent Control(%)
T14 construct: purchased DiscoveRx KINOMEscan (Ambit Biosciences)

[15] = target: T15, TXK (Homo sapiens, UniProt P42681); test: KINOMEscan panel screen; assay type: binding; conditions: read-out: Percent Control(%)
T15 construct: purchased DiscoveRx KINOMEscan (Ambit Biosciences)

[16] = target: T16, ASK2 (Homo sapiens, UniProt O95382); test: KINOMEscan panel screen; assay type: binding; conditions: read-out: Percent Control(%)
T16 construct: purchased DiscoveRx KINOMEscan (Ambit Biosciences)

[17] = target: T17, MKK7 (Homo sapiens, UniProt O14733); test: KINOMEscan panel screen; assay type: binding; conditions: read-out: Percent Control(%)
T17 construct: purchased DiscoveRx KINOMEscan (Ambit Biosciences)
T17 sequence (O14733 whole entry): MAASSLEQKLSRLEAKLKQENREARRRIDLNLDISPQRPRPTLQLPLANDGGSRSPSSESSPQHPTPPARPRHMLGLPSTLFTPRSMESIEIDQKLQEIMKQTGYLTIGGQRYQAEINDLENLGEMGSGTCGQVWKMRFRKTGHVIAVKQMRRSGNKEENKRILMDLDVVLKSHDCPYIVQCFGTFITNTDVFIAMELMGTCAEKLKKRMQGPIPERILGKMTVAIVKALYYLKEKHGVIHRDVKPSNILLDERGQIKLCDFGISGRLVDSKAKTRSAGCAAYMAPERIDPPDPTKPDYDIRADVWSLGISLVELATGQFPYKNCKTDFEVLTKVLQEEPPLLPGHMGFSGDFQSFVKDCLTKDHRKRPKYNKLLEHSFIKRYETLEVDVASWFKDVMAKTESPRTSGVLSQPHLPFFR

[18] = target: T18, ITK (Homo sapiens, UniProt Q08881); test: KINOMEscan panel screen; assay type: binding; conditions: read-out: Percent Control(%)
T18 construct: purchased DiscoveRx KINOMEscan (Ambit Biosciences)

[19] = target: T19, PIP5K1C (Homo sapiens, UniProt O60331); test: KINOMEscan panel screen; assay type: binding; conditions: read-out: Percent Control(%)
T19 construct: purchased DiscoveRx KINOMEscan (Ambit Biosciences)

[20] = target: T20, CSNK1D (Homo sapiens, UniProt P48730); test: KINOMEscan panel screen; assay type: binding; conditions: read-out: Percent Control(%)
T20 construct: purchased DiscoveRx KINOMEscan (Ambit Biosciences)

[21] = target: T21, ERBB4 (Homo sapiens, UniProt Q15303); design: method as in earlier work; conditions: Table S1; cited from earlier work
T21 construct: purchased DiscoveRx KINOMEscan (Ambit Biosciences)
T21 sequence (Q15303 26-1308): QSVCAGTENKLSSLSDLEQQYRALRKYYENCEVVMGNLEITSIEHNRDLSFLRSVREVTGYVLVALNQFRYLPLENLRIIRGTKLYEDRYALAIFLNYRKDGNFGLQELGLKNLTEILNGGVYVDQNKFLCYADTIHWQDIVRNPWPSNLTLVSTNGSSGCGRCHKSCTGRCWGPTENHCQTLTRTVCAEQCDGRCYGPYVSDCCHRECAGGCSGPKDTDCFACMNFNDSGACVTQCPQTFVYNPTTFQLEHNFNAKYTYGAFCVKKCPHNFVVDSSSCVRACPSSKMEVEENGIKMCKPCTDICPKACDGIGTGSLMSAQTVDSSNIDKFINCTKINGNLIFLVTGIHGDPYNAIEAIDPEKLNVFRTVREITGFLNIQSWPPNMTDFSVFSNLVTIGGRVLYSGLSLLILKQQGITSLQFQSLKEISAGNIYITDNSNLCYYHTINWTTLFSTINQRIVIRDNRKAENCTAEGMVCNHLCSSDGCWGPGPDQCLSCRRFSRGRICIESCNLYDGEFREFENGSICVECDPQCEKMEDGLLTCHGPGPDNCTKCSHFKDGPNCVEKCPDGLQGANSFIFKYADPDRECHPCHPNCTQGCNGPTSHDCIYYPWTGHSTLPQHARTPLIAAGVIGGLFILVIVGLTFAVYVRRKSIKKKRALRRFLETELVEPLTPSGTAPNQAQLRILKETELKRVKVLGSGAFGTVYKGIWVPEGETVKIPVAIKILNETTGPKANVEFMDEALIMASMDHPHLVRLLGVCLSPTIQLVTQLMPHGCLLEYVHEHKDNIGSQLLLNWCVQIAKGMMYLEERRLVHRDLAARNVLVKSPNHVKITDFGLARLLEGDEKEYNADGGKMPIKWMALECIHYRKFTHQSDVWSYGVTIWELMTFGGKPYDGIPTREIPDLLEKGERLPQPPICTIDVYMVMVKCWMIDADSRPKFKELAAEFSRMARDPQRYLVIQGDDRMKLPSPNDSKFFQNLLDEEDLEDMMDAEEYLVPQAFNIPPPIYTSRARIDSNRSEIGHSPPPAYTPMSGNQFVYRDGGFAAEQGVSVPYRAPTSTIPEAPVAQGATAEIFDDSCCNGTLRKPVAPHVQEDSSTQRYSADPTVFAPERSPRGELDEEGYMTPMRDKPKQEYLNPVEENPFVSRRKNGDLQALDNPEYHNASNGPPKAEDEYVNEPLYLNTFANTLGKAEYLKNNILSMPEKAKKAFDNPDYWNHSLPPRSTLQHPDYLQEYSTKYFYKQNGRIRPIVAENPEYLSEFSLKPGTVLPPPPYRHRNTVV

T1 sequence (O15530 whole entry): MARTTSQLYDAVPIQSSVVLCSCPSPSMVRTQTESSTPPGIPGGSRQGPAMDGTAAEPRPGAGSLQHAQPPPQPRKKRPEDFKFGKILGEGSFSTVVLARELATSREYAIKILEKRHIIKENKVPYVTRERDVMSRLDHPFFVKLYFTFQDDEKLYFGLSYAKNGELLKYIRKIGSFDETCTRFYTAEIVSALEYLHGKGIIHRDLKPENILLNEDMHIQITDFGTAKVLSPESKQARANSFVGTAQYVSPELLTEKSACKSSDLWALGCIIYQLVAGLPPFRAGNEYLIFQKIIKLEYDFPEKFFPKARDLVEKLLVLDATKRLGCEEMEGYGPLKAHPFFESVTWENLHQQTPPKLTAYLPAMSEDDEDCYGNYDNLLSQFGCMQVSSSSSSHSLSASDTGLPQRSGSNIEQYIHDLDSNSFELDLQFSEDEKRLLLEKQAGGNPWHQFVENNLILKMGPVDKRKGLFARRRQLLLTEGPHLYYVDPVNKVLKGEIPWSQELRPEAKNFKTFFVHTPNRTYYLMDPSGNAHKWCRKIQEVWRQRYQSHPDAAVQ

Compound: CC(C)(C)c1cc(NC(=O)Nc2ccc(Oc3ncnc4[nH]ncc34)c(F)c2)no1 [SKLB-677, 1-(4-(1H-pyrazolo[3,4-d]pyrimidin-4-yloxy)-3-fluorophenyl)-3-(5-tert-butylisoxazol-3-yl)urea]
- remaining binding at 10 µM [1]: 100%
- remaining binding at 10 µM [2]: 98%
- remaining binding at 10 µM [3]: 85%
- remaining binding at 10 µM [4]: 71%
- remaining binding at 10 µM [5]: 24%
- remaining binding at 10 µM [6]: 78%
- remaining binding at 10 µM [7]: 10%
- remaining binding at 10 µM [8]: 2%
- remaining binding at 10 µM [9]: 15%
- remaining binding at 10 µM [10]: 89%
- remaining binding at 10 µM [11]: 68%
- remaining binding at 10 µM [12]: 56%
- remaining binding at 10 µM [13]: 0.05%
- remaining binding at 10 µM [14]: 62%
- remaining binding at 10 µM [15]: 88%
- remaining binding at 10 µM [16]: 32%
- remaining binding at 10 µM [17]: 77%
- remaining binding at 10 µM [18]: 36%
- remaining binding at 10 µM [19]: 51%
- remaining binding at 10 µM [20]: 44%

Compound: O=C(Nc1ccc(Oc2ncnc3[nH]ncc23)cc1)Nc1ccc(Cl)c(C(F)(F)F)c1 [Compound 1, 1-(4-(1H-pyrazolo[3,4-d]pyrimidin-4-yloxy)phenyl)-3-(4-chloro-3-(trifluoromethyl)phenyl)urea]
- IC50 [21]: > 10 µM

— article PMC4620497 (Scientific Reports, 2015)
